ChEMBL document CHEMBL1146575, “Imidazole alkaloids from Lepidium meyenii” (2003)

How the values were obtained:
Assay type in all cases: functional
[1] = Cytotoxicity against human FDIGROV cells; conditions: read-out: ED50 (the source's name)
MIA PaCa-2 = test: Cytotoxicity against human MIAPaCa2 cells; conditions: read-out: ED50 (the source's name)
A549 = test: Cytotoxicity against human A549 cells; conditions: read-out: ED50 (the source's name)
[2] = Cytotoxicity against human A4982LM cells; conditions: read-out: ED50 (the source's name)
PC-3 = test: Cytotoxicity against human PC3 cells; conditions: read-out: ED50 (the source's name)
UMUC3 = test: Cytotoxicity against human UM-UC-3 cells; conditions: read-out: ED50 (the source's name)
[3] = Cytotoxicity against human MDA231 cells; conditions: MDA-MB-231, read-out: ED50 (the source's name)
HT-29 = test: Cytotoxicity against human HT-29 cells; conditions: read-out: ED50 (the source's name)

Structure (SMILES)	EC50 [1] [µg/mL]	EC50 (MIA PaCa-2) [µg/mL]	EC50 (A549) [µg/mL]	EC50 [2] [µg/mL]	EC50 (PC-3) [µg/mL]	EC50 (UMUC3) [µg/mL]	EC50 [3] [µg/mL]	EC50 (HT-29) [µg/mL]
Cc1c(C)[n+](Cc2ccccc2)cn1Cc1ccccc1.[Cl-] [LEPIDILINE A]	7.39	> 10	> 10	> 10	> 10	> 10	> 10	> 10
Cc1c(C)[n+](Cc2ccccc2)c(C)n1Cc1ccccc1.[Cl-] [LEPIDILINE B]	5.26	1.38	> 10	> 10	> 10	6.47	1.66	> 10
